Data set [1] is described as follows: Monkey IV pharmacokinetic study. The note with it: Compound W IV 5 mg/kg, D5W, plasma analyte.
A short description of data set [2]: Rat IV pharmacokinetic study. The note with it: D5W, plasma analyte.
A short description of data set [3]: Monkey oral pharmacokinetic study. The data set is classed as in vivo, cynomolgus monkeys. The note with it: 0.5% MC, plasma analyte. The text has this: (§1) Plasma concentration vs. time data was subjected to noncompartmental pharmacokinetic (PK) analysis.
Data set [4] deals with M. tuberculosis ATCC 35801 (strain Erdman). Kind of data set: Mouse M. tuberculosis (Erdman) 28 day lung infection model. The data set is classed as in vivo, M. tuberculosis; host Balb/c mice. To be noted: 28 days; for Log Reduction vs. Early Control / Median Lung Burden / Log Reduction vs. Late Control: Table 23b.
A short description of data set [5]: Pharmacokinetic studies: in vivo conversion of prodrug. To be noted: in at least rats, dogs and monkeys. The method, then: The pharmacokinetic parameters of selected compounds of this invention were determined in the experiments described below. General analytic procedures and specific experimental protocols were employed as follows: […]
The nature of data set [6]: Rat oral pharmacokinetic study. Format: in vivo, Sprague Dawley rats. To be noted: plasma analyte; for AUC: male, Sprague Dawley, plasma, po, read-out: AUCextrap.
Text: as §1

For data set [7], the target named is S. aureus DNA gyrase (Staphylococcus aureus, UniProt P0A0K8). The experiment in a line: DNA gyrase ATPase assay. The note with it: solid forms, Table 27a.
In data set [8] the target is S. aureus DNA Topo IV (Staphylococcus aureus, UniProt P0C1S7). The experiment in a line: DNA Topo IV ATPase assay. The data set is classed as biochemical. The note with it: solid forms, Table 27c. Here is the method:
The conversion of ATP to ADP by S. aureus TopoIV enzyme was coupled to the conversion of NADH to NAD+, and the progress of the reaction was measured by the change in absorbance at 340 nm. TopoIV (64 nM) was incubated with the selected compound (3% DMSO final) in buffer for 10 minutes at 30° C. The buffer consisted of 100 mM Tris 7.5, 1.5 mM MgCl2, 200 mM K·Glutamate, 2.5 mM phosphoenol pyruvate, 0.2 mM NADH, 1 mM DTT, 5 ng/mL linearized DNA, 50 ng/mL BSA, 30 ng/mL pyruvate kinase, and 10 ng/mL lactate dehyrodgenase (LDH). The reaction was initiated with ATP, and rates were monitored continuously for 20 minutes at 30° C. on a Molecular Devices SpectraMAX plate reader. The inhibition constant, Ki, and the IC50 were determined from plots of rate vs. concentration of selected compound fit to the Morrison Equation for tight binding inhibitors.

Data set [9] is described as follows: Stability of the solid forms (net increase in total impurities at 40 C/30% RH). The data set is classed as physicochemical.
The nature of data set [10]: Vapor sorption (DVS) of free forms. Format: physicochemical. The method, then: In one embodiment, the hydrated Free Form A may be converted to anhydrous Free Form B of the compound by equilibrating in a low humidity environment. […] Upon dehydrating hydrated Free Form A, a corresponding anhydrous Free Form B may be obtained. […] Whether the hydrated Free Form A could absorb additional water is not known at this time. […] At 25° C., the critical humidity for conversion is around 40% (see vapor sorption experiment). […] Humidity was then changed by 5% increments until 95% RH was achieved using the same limiting conditions. The reverse steps were executed on the desorption side from 95% down to 5% RH, while always maintaining 25° C. temperature.

In data set [11] the test system is Staphylococcus aureus ATCC 29213. Kind of data set: microbe, parasite or virus in culture. The note with it: Protocol 1. The data set is classed as cell-based.
Data set [12] relates to E. coli DNA Topo IV. Kind of data set: E. coli enzyme ATPase inhibition assay (Table 27b). Format: biochemical. The note with it: E. coli DNA Topo IV (table title), solid forms.
Data set [13] has as its system Haemophilus influenzae. The experiment in a line: Gyrase MIC determination against Gram negatives using microdilution broth method (Protocol 2). Format: cell-based. To be noted: Haemophilus influenzae Rd0894 (AcrA-). Here is the method:
(§2) Compounds of this invention were tested for antimicrobial activity by susceptibility testing in liquid media. […] The specific protocols used were as follows:
(§3) Protocol 2: Gyrase MIC Determination of Compounds Against Gram Negatives Using Microdilution Broth Method
(§4) Strains (MHII Media for all; Broth and Agar): • 1. Escherichia coli AG100 WT • 2. Escherichia coli AG100 tolC • 3. […] Haemophilus influenzae Rd0894 (AcrA−)
(§5) Inoculum Prep: • 1. Using the BBL Prompt kit, picked 5 big or 10 small, well separated colonies from cultures grown on agar medium and inoculated 1 mL sterile saline that came with the kit. • 2. Vortexed the wells for ˜30 s to give a suspension of ˜10^8 cells/mL. Actual density could be confirmed by plating out dilutions of this suspension. • 3. Diluted the suspension 1/100 by transferring 0.15 mL of cells into 15 mL (˜10^6 cells/mL) sterile broth (see below) for each plate of compounds tested, swirled to mix. […] Used 50 μl cells (˜5×10^4 cells) to inoculate each microtiter well containing 50 μl of the drug diluted in broth (see below).
(§6) Drug Dilutions, Inoculation, MIC Determination: • 1. […] Diluted drug/compound stocks to 200× desired final concentration in 50 μL DMSO. If starting concentration of MICs was 8 μg/mL final concentration, then required 6.25 μL of stock+43.75 μL DMSO. Each 200× stock was placed in a separate row of column 1 of a new 96 well microtiter plate. • 3. Added 25 μL of DMSO to columns 2-12 of all rows of the microtiter plate containing 200× compound stocks and serially diluted 25 μL from column 1 through column 11, changed tips after each column. i.e. 25 μL compound+25 μL DMSO=2× dilution. Left “no compound” DMSO well at the end of the series for control. • 4. For each strain tested, prepared two microtiter plates with 50 μL of MHII broth using a Matrix pipettor. • 5. Transferred 0.5 μL of each dilution (w/Matrix auto-pipettor) to 50 μL of medium/microtiter well prior to the addition of 50 μl of cells. The usual starting concentration of compound was 8 μg/mL after the 1/200 dilution into medium+cells−compound concentrations decreased in 2× steps across the rows of a microtiter plate. All MICs were done in duplicate. • 6. All wells were inoculated with 50 μl of diluted cell suspension (see above) to a final volume of 100 μl. • 7. After inoculum was added, each well was mixed thoroughly with a manual multichannel pipettor; same tips were used going from low to high concentration of drug in the same microtiter plate. • 8. Plates were incubated at 37° C. for at least 18 hours. • 9.
(§7) Examined the test plates after the correct incubation time and read the MIC endpoint at the concentration where a marked reduction occurred in the appearance of growth on the test plate as compared to that of growth on the positive control plates.
In general terms: In broth dilution the organism is exposed to a series of concentrations in liquid medium.

Data set [14] concerns Escherichia coli AG100. The data set is described as above. The data set is classed as cell-based. Here is the method:
as §2, §3, §4, §5, §6, §7

Data set [15] has as its system Enterococcus faecium ATCC 49624. The experiment in a line: Gyrase MIC determination using microdilution broth method (Protocol 1). Format: cell-based.
Data set [16] concerns Enterococcus faecalis ATCC 29212. Described as above. Format: cell-based. The note with it: Enterococcus faecalis ATCC 29212, with 3% Laked Horse Blood.
[17] abbreviates: Staphylococcus aureus ATCC 29213.
[18] abbreviates: Staphylococcus aureus ATCC 29213 with 50% Mouse Serum.
The mark [19] stands for this setting: Enterococcus faecium ATCC 49624 with 3% Laked Horse Blood.

Values joined by “and” are separate entries in the source; they are usually repeats but may differ in a detail not shown here. Equal values may be shown once. Read-outs that look alike come from different tables or passages of the source.

Results on 4 compounds are retold here after patent US9018216B2, “Solid forms of (R)-2-(5-(2-(3-ethylureido)-6-fluoro-7-(tetrahydrofuran-2-yl)-1H-benzo[d]imidazol-5-yl)pyrimidin-2-yl)propan-2-yl dihydrogen phosphate and salts thereof” (priority 2012, dated 2015).

As usually defined, the Ki is a dissociation constant, usually derived from enzyme kinetics or from competition with a known ligand.

`CCNC(=O)Nc1nc2cc(-c3cnc(C(C)(C)OP(=O)([O-])[O-])nc3)c(F)c([C@H]3CCCO3)c2[nH]1.[Na+].[Na+]` [Compound W, disodium (R)-2-(5-(2-(3-ethylureido)-6-fluoro-7-(tetrahydrofuran-2-yl)-1H-benzo[d]imidazol-5-yl)pyrimidin-2-yl)propan-2-yl phosphate]: the AUCextrap came out at 5830 ng·h/mL in [1], 419 ng·h/mL in data set [2] (Compound W IV 1 mg/kg), 1120 ng·h/mL in [2] (Compound W IV 5 mg/kg) and 437 ng·h/mL in [3] (Compound W PO 100 mg/kg). The t1/2 stood at 5.35 h in data set [1]; 5.31 h in [3] (Compound W PO 100 mg/kg); 13.15 h in [3] (Compound W PO 300 mg/kg); 3.1 h in data set [6] (Compound W oral 30 mg/kg, 0.5% MC); 7.2 h in data set [6] (Compound W oral 100 mg/kg, 0.5% MC); 11.3 h in data set [6] (Compound W oral 300 mg/kg, 0.5% MC). For the same compound, the Cl_obs stood at 46.7 mL/min/kg in data set [2] (Compound W IV 1 mg/kg) and 84.6 mL/min/kg in data set [2] (Compound W IV 5 mg/kg). For the same compound, the Cmax/C0 in data set [2] (Compound W IV 1 mg/kg) was 4800 ng/mL; in data set [2] (Compound W IV 5 mg/kg) it was 9030 ng/mL. Besides, the Vss_obs in [2] (Compound W IV 1 mg/kg) stood at 0.38 L/kg; in data set [2] (Compound W IV 5 mg/kg), 5.8 L/kg. In addition, the “Log Reduction vs. Early Control” value in data set [4] (10 mg/kg BID oral gavage) is 0.64 Log; in data set [4] (30 mg/kg BID oral gavage), 1.98 Log; in [4] (100 mg/kg BID oral gavage), 2.63 Log. Further, the “Median Lung Burden” value in data set [4] (10 mg/kg BID oral gavage) turned out to be 4.34 Log cfu/lungs; in data set [4] (30 mg/kg BID oral gavage) it was 3.00 Log cfu/lungs; in data set [4] (100 mg/kg BID oral gavage), 2.35 Log cfu/lungs. Moreover, the “Log Reduction vs. Late Control” value was 0.02 Log in data set [4] (10 mg/kg BID oral gavage, phosphate); 1.36 Log in [4] (30 mg/kg BID oral gavage); 2.02 Log and 2.01 Log in data set [4] (100 mg/kg BID oral gavage, phosphate). Also, the “reduction of bacterial burdens versus the early control” value in data set [4] (doses of 10, 30, and 100 mg/kg BID) is reported as 0.64-2.63 logs. Further, in [5], the “in vivo conversion of prodrug into parent” value is “converted in vivo into Compound 23”. In addition, the AUC in [6] (30 mg/kg, Compound W oral 30 mg/kg, 0.5% MC) amounted to 58 ng·h/mL; in data set [6] (100 mg/kg, Compound W oral 100 mg/kg, 0.5% MC), 66 ng·h/mL; in data set [6] (300 mg/kg, Compound W oral 300 mg/kg, 0.5% MC) it was 464 ng·h/mL; in [6] (300 mg/kg, Compound W oral 300 mg/kg, 20% CAPT, 1% HPMC-AS, 1% PVP) it was 4270 ng·h/mL.
With `CCNC(=O)Nc1nc2cc(-c3cnc(C(C)(C)OP(=O)(O)O)nc3)c(F)c([C@H]3CCCO3)c2[nH]1` [Form A, (R)-2-(5-(2-(3-ethylureido)-6-fluoro-7-(tetrahydrofuran-2-yl)-1H-benzo[d]imidazol-5-yl)pyrimidin-2-yl)propan-2-yl dihydrogen phosphate], the Ki in [7] is 26 nM; in data set [8] it was less than 4 nM; in data set [12] it was 11 nM. Also, in data set [9] (15 days), the “Net % increase in total impurities” value is recorded as 0.07%. Besides, in data set [10] (vapor sorption, 25° C.), the “water content of fully hydrated form (vapor sorption isotherm)” value is “about 6 weight %”. Besides, the MIC in data set [11] (setting [17]) is 4 µg/mL; in data set [11] (Staphylococcus aureus, ATCC29213, Staphylococcus aureus ATCC 29213 with 50% Mouse Serum, read-out: MIC), 1 µg/mL; in data set [13], 0.25 µg/mL; in data set [14] (Escherichia coli AG100 WT), greater than 8 µg/mL; in data set [14] (Escherichia coli AG100 tolC), greater than 8 µg/mL; in data set [15] (ATCC49624, Enterococcus faecium ATCC 49624 with 3% Laked Horse Blood, read-out: MIC), 4 µg/mL.
Turning to `CCNC(=O)Nc1nc2cc(-c3cnc(C(C)(C)OP(=O)(O)O)nc3)c(F)c([C@H]3CCCO3)c2[nH]1` [Form B, (R)-2-(5-(2-(3-ethylureido)-6-fluoro-7-(tetrahydrofuran-2-yl)-1H-benzo[d]imidazol-5-yl)pyrimidin-2-yl)propan-2-yl dihydrogen phosphate], the Ki in data set [7] is less than 25 nM; in data set [8], 10 nM; in [12], less than 6 nM. Moreover, the “Net % increase in total impurities” value in [9] (17 days, listed as B) is on record as 0.16%. In data set [10] (At 25° C.), the “critical humidity for conversion of Free Form B back to Free Form A” value is listed as “around 40%”. For the same compound, the MIC in [11] (setting [17]) was found to be 4 µg/mL; in [11] (setting [18]) it was 1 µg/mL; in [13] it was 0.25 µg/mL; in data set [14] (Escherichia coli AG100 WT), 2 µg/mL; in [14] (Escherichia coli AG100 tolC), 2 µg/mL; in data set [15] (setting [19]) it was 4 µg/mL.
`CCNC(=O)Nc1nc2cc(-c3cnc(C(C)(C)OP(=O)(O)O)nc3)c(F)c([C@H]3CCCO3)c2[nH]1` [Form C, (R)-2-(5-(2-(3-ethylureido)-6-fluoro-7-(tetrahydrofuran-2-yl)-1H-benzo[d]imidazol-5-yl)pyrimidin-2-yl)propan-2-yl dihydrogen phosphate]: the Ki in data set [7] is 27 nM; in data set [12], less than 6 nM. The “Net % increase in total impurities” value in data set [9] (17 days, listed as C) is 0.18%. Also, the MIC in data set [11] (Staphylococcus aureus ATCC 29213 GyrB T173I) is greater than 16 µg/mL; in [11] (setting [18]) it was 1 µg/mL and 2 µg/mL; in data set [11] (Staphylococcus aureus, ATCC29213, Staphylococcus aureus ATCC 29213, read-out: MIC), 4 µg/mL; in [13] (read-out: MIC), 0.25 µg/mL; in [14] (Escherichia coli AG100 WT), >16 µg/mL and >8 µg/mL; in data set [15] (setting [19]), 4 µg/mL. In data set [16], this compound yielded an MIC of 2 µg/mL.
